Source: PubChem BioAssay AID1845211 (Molecular Pharmacology Branch, DTP, NCI, 2023)

System: NCI-H322M multicellular tumor spheroids, viability (% test/control)
Assay: Anticancer human tumor NCI-H322M cell line growth inhibition;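 for viability, T/C: spheroids exposed to compound for seven days before readout; 100% = DMSO vehicle control wells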
Conditions: for IC50: curve of first compound; for viability, T/C: stronger effect = lower value
Summary of the method: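 Complex tumor spheroids combined malignant cells with endothelial cells and mesenchymal stem cells. DNA-damaging drugs and DNA repair inhibitors were tested alone and in combination, at half-log dilutions down from clinical Cmax (top 10 microM if Cmax unknown), 0.25% DMSO final.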

[1] = second compound 30 pM, first compound 0.0316 µM
[2] = second compound 30 pM, first compound 0.1 µM
[3] = second compound 30 pM, first compound 0.316 µM
[4] = second compound 30 pM, first compound 1 µM
[5] = second compound 30 pM, first compound 3.16 µM
[6] = second compound 30 pM, first compound 10 µM
[7] = second compound 94.9 pM, first compound 0.0316 µM
[8] = second compound 94.9 pM, first compound 0.1 µM
[9] = second compound 94.9 pM, first compound 0.316 µM
[10] = second compound 94.9 pM, first compound 1 µM
[11] = second compound 94.9 pM, first compound 3.16 µM
[12] = second compound 94.9 pM, first compound 10 µM
[13] = second compound 0.0003 µM, first compound 0.0316 µM
[14] = second compound 0.0003 µM, first compound 0.1 µM
[15] = second compound 0.0003 µM, first compound 0.316 µM
[16] = second compound 0.0003 µM, first compound 1 µM
[17] = second compound 0.0003 µM, first compound 3.16 µM
[18] = second compound 0.0003 µM, first compound 10 µM
[19] = second compound 0.000949 µM, first compound 0.0316 µM
[20] = second compound 0.000949 µM, first compound 0.1 µM
[21] = second compound 0.000949 µM, first compound 0.316 µM
[22] = second compound 0.000949 µM, first compound 1 µM
[23] = second compound 0.000949 µM, first compound 3.16 µM
[24] = second compound 0.000949 µM, first compound 10 µM
[25] = second compound 0.003 µM, first compound 0.0316 µM
[26] = second compound 0.003 µM, first compound 0.1 µM
[27] = second compound 0.003 µM, first compound 0.316 µM
[28] = second compound 0.003 µM, first compound 1 µM
[29] = second compound 0.003 µM, first compound 3.16 µM
[30] = second compound 0.003 µM, first compound 10 µM

Row | Compound | IC50 (second compound 30 pM) | IC50 (second compound 94.9 pM) | IC50 (second compound 0.0003 µM) | IC50 (second compound 0.000949 µM) | IC50 (second compound 0.003 µM) | viability, T/C [1] | viability, T/C [2] | viability, T/C [3] | viability, T/C [4] | viability, T/C [5] | viability, T/C [6] | viability, T/C [7] | viability, T/C [8] | viability, T/C [9] | viability, T/C [10] | viability, T/C [11] | viability, T/C [12] | viability, T/C [13] | viability, T/C [14] | viability, T/C [15] | also measured
1 | CC1COCCN1c1cc(-c2ccnn2C)c2ccnc(-c3ccn[nH]3)c2n1 (stereo not given) + COc1cc2c(cc1O)CCNC21CSC2c3c(OC(C)=O)c(C)c4c(c3C(COC1=O)N1C(O)C3Cc5cc(C)c(OC)c(O)c5C(C21)N3C)OCO4 | < 0.0316 µM | < 0.0316 µM | < 0.0316 µM | < 0.0316 µM | < 0.0316 µM | 50.9% | 34.8% | 28.1% | 29.2% | 31% | 33% | 42.3% | 29.3% | 27.5% | 25.9% | 29.2% | 32.3% | 28% | 21.1% | 21% | viability, T/C [16]: 22.7%; viability, T/C [17]: 24.3%; viability, T/C [18]: 26.8%; viability, T/C [19]: 19.4%; viability, T/C [20]: 15%; viability, T/C [21]: 17%; viability, T/C [22]: 19.7%; viability, T/C [23]: 18.8%; viability, T/C [24]: 18%; viability, T/C [25]: 3.51%; viability, T/C [26]: 3.16%; viability, T/C [27]: 3.09%; viability, T/C [28]: 2.33%; viability, T/C [29]: 2.23%; viability, T/C [30]: 0.78%
2 | COc1cc(C)[nH]c(=O)c1CN1CCc2c(Cl)cc(C(OC)C3COC3)c(Cl)c2C1=O (stereo not given) + COc1cc2c(cc1O)CCNC21CSC2c3c(OC(C)=O)c(C)c4c(c3C(COC1=O)N1C(O)C3Cc5cc(C)c(OC)c(O)c5C(C21)N3C)OCO4 | > 10 µM | > 10 µM | > 10 µM | > 10 µM | < 0.0316 µM | 75.3% | 82.3% | 80.6% | 84% | 84.4% | 91.7% | 92.6% | 77.5% | 83.3% | 81% | 81.4% | 84.1% | 78.7% | 94.2% | 79% | viability, T/C [16]: 83.4%; viability, T/C [17]: 97.6%; viability, T/C [18]: 87.2%; viability, T/C [19]: 81.8%; viability, T/C [20]: 82.2%; viability, T/C [21]: 82.8%; viability, T/C [22]: 78.8%; viability, T/C [23]: 74.7%; viability, T/C [24]: 79.5%; viability, T/C [25]: 6.18%; viability, T/C [26]: 10.3%; viability, T/C [27]: 6.44%; viability, T/C [28]: 7.13%; viability, T/C [29]: 4.79%; viability, T/C [30]: 5.29%
3 | COc1ccc([C@@H](O)c2cc(-c3ncnc4cc(N5CCOCC5)ccc34)c(F)cc2Cl)nn1 + COc1cc2c(cc1O)CCNC21CSC2c3c(OC(C)=O)c(C)c4c(c3C(COC1=O)N1C(O)C3Cc5cc(C)c(OC)c(O)c5C(C21)N3C)OCO4 | 2.34 µM | 1.64 µM | 1.4 µM | 0.433 µM | < 0.0316 µM | 101% | 75.9% | 79.1% | 62.1% | 45.3% | 30.4% | 96% | 89.1% | 82.2% | 55.8% | 41.5% | 32% | 106% | 94.1% | 71.1% | viability, T/C [16]: 56.4%; viability, T/C [17]: 38.2%; viability, T/C [18]: 26.8%; viability, T/C [19]: 84.2%; viability, T/C [20]: 75.7%; viability, T/C [21]: 58.7%; viability, T/C [22]: 28.3%; viability, T/C [23]: 5.57%; viability, T/C [24]: 2.25%; viability, T/C [25]: 3.77%; viability, T/C [26]: 3.3%; viability, T/C [27]: 5.4%; viability, T/C [28]: 1.15%; viability, T/C [29]: 1.98%; viability, T/C [30]: 2.69%
4 | Cc1cc(C)c(CNC(=O)c2cc(-c3ccc(CN4CCOCC4)cc3)cc3c2cnn3C2CCCC2)c(=O)[nH]1 + COc1cc2c(cc1O)CCNC21CSC2c3c(OC(C)=O)c(C)c4c(c3C(COC1=O)N1C(O)C3Cc5cc(C)c(OC)c(O)c5C(C21)N3C)OCO4 | > 10 µM | > 10 µM | > 10 µM | > 10 µM | < 0.0316 µM | 84.6% | 97.8% | 87.1% | 97.9% | 99.6% | 114% | 92.8% | 90.9% | 92% | 84.4% | 89.5% | 130% | 96.6% | 98.1% | 98.2% | viability, T/C [16]: 95.3%; viability, T/C [17]: 108%; viability, T/C [18]: 126%; viability, T/C [19]: 92.4%; viability, T/C [20]: 92.2%; viability, T/C [21]: 87.9%; viability, T/C [22]: 96.2%; viability, T/C [23]: 82%; viability, T/C [24]: 97.8%; viability, T/C [25]: 17.8%; viability, T/C [26]: 8.17%; viability, T/C [27]: 12.3%; viability, T/C [28]: 6.05%; viability, T/C [29]: 2.7%; viability, T/C [30]: 3.51%
5 | [2H]c1nc(C)nc([2H])c1-c1cc(NC[C@@H](C)c2cccc3c(C(=O)NC)ccnc23)ncn1 + COc1cc2c(cc1O)CCNC21CSC2c3c(OC(C)=O)c(C)c4c(c3C(COC1=O)N1C(O)C3Cc5cc(C)c(OC)c(O)c5C(C21)N3C)OCO4 | > 10 µM | > 10 µM | > 10 µM | > 10 µM | < 0.0316 µM | 80.4% | 89.1% | 85.6% | 84.7% | 75.2% | 90.2% | 81.3% | 76.7% | 92.1% | 90.1% | 85.7% | 94.9% | 89% | 78.9% | 90.5% | viability, T/C [16]: 84.2%; viability, T/C [17]: 94.9%; viability, T/C [18]: 93.3%; viability, T/C [19]: 81%; viability, T/C [20]: 79.3%; viability, T/C [21]: 84%; viability, T/C [22]: 82%; viability, T/C [23]: 76%; viability, T/C [24]: 75.8%; viability, T/C [25]: 15.8%; viability, T/C [26]: 12.2%; viability, T/C [27]: 10.5%; viability, T/C [28]: 10.9%; viability, T/C [29]: 8.62%; viability, T/C [30]: 5.55%
